Experimental data: patent publication US7795294B2, “Tetrahydro-2H-indazole pyrazole cannabinoid modulators” (Janssen Pharmaceutica N.V., priority 2006, dated 2010)
Like-named read-outs stand apart in the source and are kept apart here.

What was measured:
human CB1 receptor = biological target: T1, human CB1 receptor (Homo sapiens, UniProt P21554); assay: Binding assay for CB1 agonists or inverse agonists, [3H]-CP-55,940 displacement on membranes of transfected SK-N-MC cells; conditions: for inhibition at 0.2 µM: read-out: Cannabinoid CB1 Receptor Binding percent inhibition
T1 construct: expressed in transfected cells; host or cells: SK-N-MC cells, stably transfected with pcDNA3 CB-1 (human); semi-purified membrane pellet
Method: (§1) The human CB1 and CB2 receptors were stably expressed in SK-N-MC cells transfected with pcDNA3 CB-1 (human) or pcDNA3 CB-2 (human). The cells were grown in T-180 cell culture flasks under standard cell culture conditions at 37° C. in a 5% CO2 atmosphere. The cells were harvested by trysinization and homogenized in a homogenization buffer (10 mM Tris, 0.2 mM MgCl2, 5 mM KCl, with protease inhibitors aprotinin, leupeptin, pepstatin A and bacitracin) and centrifuged (2000 g). The supernatant was then centrifuged in 2M sucrose (31,300 g) to produce a semi-purified membrane pellet. The pellet was resuspended in homogenization and stored at −80° C.
(§2) On the day of the assay, the pellet was thawed on ice and diluted in assay buffer (50 mM Tris-HCl, 5 mM MgCl2, 2.5 mM EDTA, 0.5 mg/mL fatty acid free bovine serum albumin, pH 7.5). […] The plate was covered and incubated for 90 minutes at 30° C. The contents were then aspirated onto a Packard Unifilter GF/C filter bottom plate prewet with 0.5% polyethyleneimine. The wells of the polypropylene plate were rinsed and aspirated seven times with a 0.9% saline-0.5% Tween 20 solution. The Unifilter plate was dried, a scintillation cocktail was added to each well and the counts representing binding were quantitated in a TopCount scintillation counter.
(§3) For compounds tested, an IC50 binding value was obtained from percent inhibition studies in which various test concentrations were used. The binding value was calculated by linear regression. An average value is shown for those compounds where two or more IC50 values were obtained.
(§4) An average value is shown for those compounds where two or more percent inhibition values were obtained.

human CB2 receptor = biological target: T2, human CB2 receptor (Homo sapiens, UniProt P34972); assay: Binding assay for CB2 agonists or inverse agonists, [3H]-CP-55,940 displacement on membranes of transfected SK-N-MC cells
T2 construct: expressed in transfected cells; host or cells: SK-N-MC cells, stably transfected with pcDNA3 CB-2 (human); semi-purified membrane pellet
Method: as §1, §2, §3, §4

[1] = read-out: Cannabinoid CB2 Receptor Binding percent inhibition

T1 sequence (P21554 whole entry): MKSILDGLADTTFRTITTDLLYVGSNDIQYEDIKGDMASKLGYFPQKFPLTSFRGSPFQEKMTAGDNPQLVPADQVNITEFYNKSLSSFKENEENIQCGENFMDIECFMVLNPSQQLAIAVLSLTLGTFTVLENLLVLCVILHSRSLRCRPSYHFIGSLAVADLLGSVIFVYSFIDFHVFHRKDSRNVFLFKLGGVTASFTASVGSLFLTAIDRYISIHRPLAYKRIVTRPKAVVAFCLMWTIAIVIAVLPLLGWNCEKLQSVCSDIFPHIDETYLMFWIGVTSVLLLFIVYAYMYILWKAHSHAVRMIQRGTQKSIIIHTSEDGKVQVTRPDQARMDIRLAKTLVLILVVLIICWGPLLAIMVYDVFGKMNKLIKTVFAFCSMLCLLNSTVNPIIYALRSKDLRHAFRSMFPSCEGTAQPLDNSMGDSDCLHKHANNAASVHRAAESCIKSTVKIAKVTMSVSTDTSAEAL
T2 sequence (P34972 whole entry): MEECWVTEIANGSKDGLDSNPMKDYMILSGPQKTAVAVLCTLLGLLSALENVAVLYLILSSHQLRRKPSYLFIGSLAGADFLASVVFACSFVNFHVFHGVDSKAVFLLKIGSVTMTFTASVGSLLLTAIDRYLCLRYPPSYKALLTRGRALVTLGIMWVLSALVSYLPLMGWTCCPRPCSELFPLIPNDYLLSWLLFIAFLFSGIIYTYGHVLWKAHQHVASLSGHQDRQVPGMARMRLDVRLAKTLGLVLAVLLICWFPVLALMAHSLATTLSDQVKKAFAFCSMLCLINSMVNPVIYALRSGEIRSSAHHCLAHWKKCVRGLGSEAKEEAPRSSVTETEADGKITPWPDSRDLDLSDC

| SMILES | IC50 (human CB1 receptor) | inhibition at 0.2 µM (human CB2 receptor; [1]) | inhibition at 0.2 µM (human CB1 receptor) | also measured |
| --- | --- | --- | --- | --- |
| C[C@@H](NC(=O)[C@@H]1CCCc2c1nn(-c1ccc(Cl)cc1Cl)c2-c1ccc(Cl)s1)c1ccccc1 [Cpd 49, (7R)-3-(5-chloro-thiophen-2-yl)-2-(2,4-dichloro-phenyl)-4,5,6,7-tetrahydro-2H-indazole-7-carboxylic acid [(1R)-1-phenyl-ethyl]-amide] | 0.007 µM | 14% | – | – |
| CN(NC(=O)C1CCCc2c1nn(-c1ccc(Cl)cc1Cl)c2-c1ccc(Cl)cc1)c1ccccc1 (centres unmarked) [Cpd 35, 3-(4-chloro-phenyl)-2-(2,4-dichloro-phenyl)-4,5,6,7-tetrahydro-2H-indazole-7-carboxylic acid N′-methyl-N′-phenyl-hydrazide] | 0.002 µM | 3% | – | – |
| C[C@@H](NC(=O)[C@H]1CCCc2c1nn(-c1ccc(Cl)cc1Cl)c2-c1ccc(Br)s1)C1CCCCC1 [Cpd 54, (7S)-3-(5-bromo-thiophen-2-yl)-2-(2,4-dichloro-phenyl)-4,5,6,7-tetrahydro-2H-indazole-7-carboxylic acid [(1R)-1-cyclohexyl-ethyl]-amide] | – | 12% | 35% | – |
| COc1ccc(-c2c3c(nn2-c2ccc(Cl)cc2Cl)[C@H](C(=O)N[C@H](C)c2ccccc2)CCC3)cc1 [Cpd 24, (7R)-2-(2,4-dichloro-phenyl)-3-(4-methoxy-phenyl)-4,5,6,7-tetrahydro-2H-indazole-7-carboxylic acid [(1R)-1-phenyl-ethyl]-amide] | – | 28% | 58% | – |
| Cc1ccc(-c2c3c(nn2Cc2ccccc2)C(C(=O)NC2C4(C)CCC(C4)C2(C)C)CCC3)cc1 (centres unmarked) [Cpd 6, 2-benzyl-3-p-tolyl-4,5,6,7-tetrahydro-2H-indazole-7-carboxylic acid (1,3,3-trimethyl-bicyclo[2.2.1]hept-2-yl)-amide] | 0.4 µM | – | – | IC50 (human CB2 receptor): 0.84 µM |
| COc1ccc(-c2c3c(nn2-c2ccc(Cl)cc2Cl)C(C(=O)NN2CC4CCCC4C2)CCC3)cc1 (centres unmarked) [Cpd 28, 2-(2,4-dichloro-phenyl)-3-(4-methoxy-phenyl)-4,5,6,7-tetrahydro-2H-indazole-7-carboxylic acid (hexahydro-cyclopenta[c]pyrrol-2-yl)-amide] | – | 23% | 59% | – |
| C[C@@H](NC(=O)[C@H]1CCCc2c1nn(-c1ccc(Cl)cc1Cl)c2-c1ccc(Br)cc1)c1ccccc1 [Cpd 45, (7S)-3-(4-bromo-phenyl)-2-(2,4-dichloro-phenyl)-4,5,6,7-tetrahydro-2H-indazole-7-carboxylic acid [(1R)-1-phenyl-ethyl]-amide] | – | 11% | 66% | – |
| COc1ccc(-c2c3c(nn2-c2ccc(Cl)cc2Cl)C(C(=O)NN(C)c2ccccc2)CCC3)cc1 (centres unmarked) [Cpd 26, 2-(2,4-dichloro-phenyl)-3-(4-methoxy-phenyl)-4,5,6,7-tetrahydro-2H-indazole-7-carboxylic acid N′-methyl-N′-phenyl-hydrazide] | 0.006 µM | 32% | – | – |
| C[C@@H](NC(=O)[C@@H]1CCCc2c1nn(-c1ccc(Cl)cc1Cl)c2-c1ccc(Br)s1)C1CCCCC1 [Cpd 55, (7R)-3-(5-bromo-thiophen-2-yl)-2-(2,4-dichloro-phenyl)-4,5,6,7-tetrahydro-2H-indazole-7-carboxylic acid [(1R)-1-cyclohexyl-ethyl]-amide] | 0.003 µM | 27% | – | – |
| CC(NC(=O)C1CCCc2c1nn(Cc1ccccc1)c2-c1ccc(Cl)cc1)C1CCCCC1 (centres unmarked) [Cpd 5, 2-benzyl-3-(4-chloro-phenyl)-4,5,6,7-tetrahydro-2H-indazole-7-carboxylic acid (1-cyclohexyl-ethyl)-amide] | 0.7 µM | – | – | IC50 (human CB2 receptor): 6.1 µM |
| COc1ccc(-c2c3c(nn2-c2ccc(Cl)cc2Cl)C(C(=O)N[C@H](C)c2ccccc2)CCC3)cc1 (stereo partly drawn) [Cpd 23, 2-(2,4-dichloro-phenyl)-3-(4-methoxy-phenyl)-4,5,6,7-tetrahydro-2H-indazole-7-carboxylic acid [(1R)-1-phenyl-ethyl]-amide] | 0.008 µM | 28% | – | – |
| C[C@@H](NC(=O)[C@H]1CCCc2c1nn(-c1ccc(Cl)cc1Cl)c2-c1ccc(F)cc1)c1ccccc1 [Cpd 37, (7S)-2-(2,4-dichloro-phenyl)-3-(4-fluoro-phenyl)-4,5,6,7-tetrahydro-2H-indazole-7-carboxylic acid [(1R)-1-phenyl-ethyl]-amide] | – | 4% | 50% | – |
| Cc1ccc(-c2c3c(nn2Cc2ccccc2)C(C(=O)NC(C)C24CC5CC(CC(C5)C2)C4)CCC3)cc1 (centres unmarked) [Cpd 7, 2-benzyl-3-p-tolyl-4,5,6,7-tetrahydro-2H-indazole-7-carboxylic acid (1-adamantan-1-yl-ethyl)-amide] | 0.37 µM | – | – | IC50 (human CB2 receptor): 0.8 µM |
| O=C(N[C@H](CO)c1ccccc1)[C@@H]1CCCc2c1nn(-c1ccc(Cl)cc1Cl)c2-c1ccc(Br)s1 [Cpd 57, (7R)-3-(5-bromo-thiophen-2-yl)-2-(2,4-dichloro-phenyl)-4,5,6,7-tetrahydro-2H-indazole-7-carboxylic acid [(1S)-2-hydroxy-1-phenyl-ethyl]-amide] | 0.3 µM | – | – | IC50 (human CB2 receptor): 0.3 µM |
| COc1ccc(-n2nc3c(c2-c2ccc(C)cc2)CCCC3C(=O)N[C@H]2C3(C)CCC(C3)C2(C)C)cc1 (stereo partly drawn) [Cpd 16, 2-(4-methoxy-phenyl)-3-p-tolyl-4,5,6,7-tetrahydro-2H-indazole-7-carboxylic acid [(2S)-1,3,3-trimethyl-bicyclo[2.2.1]hept-2-yl]-amide] | – | – | – | IC50 (human CB1 receptor; radioligand CP-55,940 0.2 nM, average where two or more values, read-out: Cannabinoid CB1 Receptor Binding IC50): 0.18 µM; inhibition at 25 µM (human CB2 receptor; [1]): 66% |
| C[C@@H](NC(=O)[C@@H]1CCCc2c1nn(-c1ccc(Cl)cc1Cl)c2-c1ccc(F)cc1)c1ccccc1 [Cpd 38, (7R)-2-(2,4-dichloro-phenyl)-3-(4-fluoro-phenyl)-4,5,6,7-tetrahydro-2H-indazole-7-carboxylic acid [(1R)-1-phenyl-ethyl]-amide] | 0.002 µM | 14% | – | – |
| C[C@@H](NC(=O)[C@H]1CCCc2c1nn(-c1ccc(Cl)cc1Cl)c2-c1ccc(Cl)s1)c1ccccc1 [Cpd 48, (7S)-3-(5-chloro-thiophen-2-yl)-2-(2,4-dichloro-phenyl)-4,5,6,7-tetrahydro-2H-indazole-7-carboxylic acid [(1R)-1-phenyl-ethyl]-amide] | – | 0% | 38% | – |
| COc1ccc(-c2c3c(nn2-c2ccc(Cl)cc2Cl)[C@@H](C(=O)N[C@H](C)c2ccccc2)CCC3)cc1 [Cpd 25, (7S)-2-(2,4-dichloro-phenyl)-3-(4-methoxy-phenyl)-4,5,6,7-tetrahydro-2H-indazole-7-carboxylic acid [(1R)-1-phenyl-ethyl]-amide] | 0.004 µM | 35% | – | – |
| O=C(NN1CCCCC1)C1CCCc2c1nn(-c1ccc(Cl)cc1Cl)c2-c1ccc(Br)cc1 (centres unmarked) [Cpd 41, 3-(4-bromo-phenyl)-2-(2,4-dichloro-phenyl)-4,5,6,7-tetrahydro-2H-indazole-7-carboxylic acid piperidin-1-ylamide] | 0.04 µM | 26% | – | – |
| CC(NC(=O)C1CCCc2c1nn(Cc1ccccc1)c2-c1cccc(F)c1)C12CCC3CC(CC3C1)C2 (centres unmarked) [Cpd 20, 2-benzyl-3-(3-fluoro-phenyl)-4,5,6,7-tetrahydro-2H-indazole-7-carboxylic acid [1-(octahydro-2,5-methano-inden-5-yl)-ethyl]-amide] | 0.13 µM | – | – | IC50 (human CB2 receptor): 0.07 µM |
| COc1ccc(-c2c3c(nn2-c2ccc(Cl)cc2Cl)C(C(=O)NN2CCCCC2)CCC3)cc1 (centres unmarked) [Cpd 21, 2-(2,4-dichloro-phenyl)-3-(4-methoxy-phenyl)-4,5,6,7-tetrahydro-2H-indazole-7-carboxylic acid piperidin-1-ylamide] | – | 18% | 42% | – |
| CC12CCC(C1)C(C)(C)C2NC(=O)C1CCCc2c1nn(Cc1ccccc1)c2-c1ccc(Cl)cc1 (centres unmarked) [Cpd 4, 2-benzyl-3-(4-chloro-phenyl)-4,5,6,7-tetrahydro-2H-indazole-7-carboxylic acid (1,3,3-trimethyl-bicyclo[2.2.1]hept-2-yl)-amide] | 5.52 µM | – | – | IC50 (human CB2 receptor): 3.9 µM |
